{
  "source": "ChEMBL document CHEMBL1139651",
  "about": "“Antiarrhythmic activity of 4,6-di(het)aryl-5-nitro-3,4-dihydropyrimidin-(1H)-2-ones and its effects on arterial pressure in rats” (2006)",
  "system": "Rattus norvegicus",
  "assay": "Antiarrhythmic activity in iv dosed rat",
  "format": "functional",
  "conditions": "Heart; for minimal effective dose: read-out: MED",
  "data": [
    {"smiles": "O=C1NC(c2ccccc2)=C([N+](=O)[O-])C(c2ccc(O)cc2)N1", "note": "(stereo not given)", "values": [
      {"measurement": "LD50", "value": "> 5000", "unit": "mg/kg"},
      {"measurement": "minimal effective dose", "value": 35, "unit": "µg/kg"}
    ]},
    {"smiles": "O=C1NC(c2ccccc2)=C([N+](=O)[O-])C(c2cccnc2)N1", "note": "(stereo not given)", "values": [
      {"measurement": "LD50", "value": "> 1000", "unit": "mg/kg"},
      {"measurement": "minimal effective dose", "value": 35, "unit": "µg/kg"}
    ]},
    {"smiles": "O=C1NC(c2ccccc2)=C([N+](=O)[O-])C(c2cccc([N+](=O)[O-])c2)N1", "note": "(stereo not given)", "values": [
      {"measurement": "LD50", "value": "> 1000", "unit": "mg/kg"},
      {"measurement": "minimal effective dose", "value": 0.045, "unit": "µg/kg"}
    ]},
    {"smiles": "O=C1NC(c2ccccc2)=C([N+](=O)[O-])C(c2cccc(F)c2)N1", "note": "(stereo not given)", "values": [
      {"measurement": "LD50", "value": "> 5000", "unit": "mg/kg"},
      {"measurement": "minimal effective dose", "value": 0.35, "unit": "µg/kg"}
    ]},
    {"smiles": "O=C1NC(c2ccccc2)=C([N+](=O)[O-])C(c2cccs2)N1", "note": "(stereo not given)", "values": [
      {"measurement": "LD50", "value": "> 1000", "unit": "mg/kg"},
      {"measurement": "minimal effective dose", "value": 3500, "unit": "µg/kg"}
    ]},
    {"smiles": "O=C1NC(c2ccccc2)=C([N+](=O)[O-])C(c2ccccc2)N1", "note": "(stereo not given)", "values": [
      {"measurement": "LD50", "value": "> 5000", "unit": "mg/kg"},
      {"measurement": "minimal effective dose", "value": 35, "unit": "µg/kg"}
    ]},
    {"smiles": "COc1ccc(CCN(C)CCCC(C#N)(c2ccc(OC)c(OC)c2)C(C)C)cc1OC", "note": "(stereo not given)", "values": [
      {"measurement": "ED50", "value": 1.1, "unit": "mg/kg"}
    ]},
    {"smiles": "COC(=O)C1=C(C)NC(C)=C(C(=O)OC)C1c1ccccc1[N+](=O)[O-]", "note": "[NIFEDIPINE]", "values": [
      {"measurement": "LD50", "value": 210, "unit": "mg/kg"},
      {"measurement": "minimal effective dose", "value": 3500, "unit": "µg/kg"}
    ]}
  ]
}
